Paper doi:10.1101/2025.01.24.634724, “Receptor Activity-Modifying Protein 3 enhances GLP-1-mediated Insulin Secretion” (bioRxiv, 2025)
Several values for one entry are separate records, joined by “and”; a condition that tells them apart may be missing. Identical values can stand only once. Entries after “also recorded” stand apart in the source; their conditions may differ. Numbered stars: 1 amine (or outer) side, 2 acyl side, 3 side chain; on linkers, the order of the positions; unused ones are H or OH. Bridge positions count the residues as written; N and C are the ends. Square brackets hold non-standard residues; d marks the D form. Peptide text beside a SMILES is read from it. X1 = CC(=O)NC(C(=O)OC(C(C)C)C(N[*:1])C(=O)[*:2])C(O)C(C)C; PhLac = O=C(O)[CH](O)Cc1ccccc1; NMeT = CN[CH](C(=O)O)[CH](C)O; NMeA = CN[CH](C)C(=O)O; NMeDha = C=C(NC)C(=O)O

Tests used:
CLR-RAMP1 = conditions: cited from earlier work
From the text: As RAMP3 expression varies between tissues, it is possible that by directly targeting this complex, tissue specific receptor activation could be facilitated. […] Agonists which have reduced affinity for the RAMP3 complex over receptor alone ...

INS-1 832/3 cells = experiment: Insulin secretion (GSIS), INS-1 832/3; assay type: cell-based, rat; conditions: for effect of inhibitor on GLP-1-mediated insulin secretion: 10nM GLP-1, vector or RAMP3, 30 min inhibitor pre-treatment (YM-254890 100nM, PTX 0.2ng/μL), n>4
Procedure: (§1) Insulin content was measured with the insulin ultra-sensitive detection kit (Cisbio).

[1] = tested on: LgBiT-GLP-1R with SmBiT-RAMP1 or -RAMP2; experiment: NanoBiT/BRET fluorescent ligand binding with SmBiT-RAMP1 or -RAMP2; conditions: SmBiT-RAMP1 or -RAMP2, HEK293T
[2] = tested on: Ramp1/Ramp3 knockout mice; conditions: mouse models; dual Ramp1/Ramp3 deletion ref 43 (Leuthardt et al.); cited from earlier work
From the text: It is possible this difference is due to lower receptor expression, or a differential effect on bias for the rodent receptors than the human. Species differences in signalling bias have been observed for other GPCRs associated with islet cell pharmacology ([41]), so it stands to reason this might be influencing the differences o ...

[3] = tested on: wildtype SvEv129/SJ and isogenic Ramp3−/− male mice; experiment: Insulin tolerance test (ITT), blood glucose, WT and Ramp3−/− mice; assay type: in vivo, mouse; conditions: GLP-1 50nmol/kg subQ 15 min before insulin 1IU/kg i.p., n=5
From the text: (§2) Ramp3^−/− mice and genotyping have been previously described ([34]).

[4] = tested on: wildtype SvEv129/SJ and isogenic Ramp3−/− male mice; experiment: IPGTT plasma insulin, WT and Ramp3−/− mice; assay type: in vivo, mouse; conditions: GLP-1 50nmol/kg subQ, 15 min after glucose 2g/kg i.p., n=5
From the text: as §2

GCGR with RAMP2 = conditions: RAMP2 co-expression ref 13; cited from earlier work
From the text: Signalling bias can also be influenced by the tissue, due to differential expression of signalling proteins, as well as allosteric modulators. A common protein allosteric modulator of Class B1 GPCRs are the receptor activity-modifying proteins (RAMPs). First discovered for the calcitonin-like receptor, with which they form obligate heterodimers, RAMPs influence the expression, affinity, and signalling bias of the receptor. For the calcitonin family, this leads to receptors considered functionally distinct ([10], [11]), although smaller effects are observed on other receptors e.g. the vasoactiv ...

Min6 B1 cells = experiment: Insulin secretion, siRNA treated Min6 B1; assay type: cell-based, mouse; conditions: 10nM or 1nM peptide with 10mM glucose; Min6 B1, n=4
Procedure: as §1

Nluc-GLP-1R [5] = experiment: (Ca2+)i mobilisation, HEK293T; assay type: cell-based
Procedure: HEK293T cells were transfected with 100ng Nluc-GLP-1R and 200ng of pcDNA3.1 or FLAG-RAMP3, or 100ng of pcDNA3.1 and FLAG- RAMP3 per 100μl cells and seeded in a 0.01% PLL-coated black-walled clear-bottom 96-well plate. 48 hours later media was removed, and cells were incubated in 10μM Fluor4-AM dye containing 2.5mM probenecid for 1 hour at room temperature. Cells were washed and dye replaced with Hank’s Balanced Salt Solution (Lonza) without Ca^2+ containing 0.1% BSA w/v. […] The response to vehicle was taken to be 0%, and the response to 10 μM ionomycin was used as 100%. For HEK293T cells, the maximal fluorescence was used for further analysis.

Nluc-GLP-1R [6] = experiment: cAMP accumulation, HEK293T; assay type: cell-based
GLP-1R / Gαq(R183Q) = experiment: TRUPATH G protein dissociation, Gαq(R183Q); conditions: HEK293T, R183Q mutant
Procedure: (§3) G Protein dissociation assays were performed using the TRUPATH biosensor platform, as described ([28]). HEK293T cells were transfected with GLP-1R, Gα, Gγ, Gβ, and pcDNA3.1 or FLAG-RAMP3 all in equal quantities and incubated overnight. […] Cells were washed with KREBs with 0.1% BSA and incubated in buffer containing 5μM coelenterazine 400a for 5 minutes. Ligands were then added, and plates read using the Pherastar microplate reader using the BRET2 module, at 60-second intervals. The BRET2 ratio was calculated (λ515/λ400) and total dissociation over a 30-minute period used to generate dose response curves.

GLP-1R / Gαs = experiment: TRUPATH G protein dissociation, Gαs; assay type: cell-based; conditions: HEK293T
Procedure: as §3

GLP-1R-Nluc [7] = experiment: Receptor internalisation (loss of BRET with RIT-Venus), HEK293T; assay type: cell-based; conditions: for effect of RAMP3 on internalisation: RAMP3 overexpression
Procedure: Experiments were performed as previously described (([47])).

GLP-1R-Nluc [8] = experiment: β-arrestin recruitment, HEK293T; assay type: cell-based; conditions: stated in discussion
[9] = relative to GLP-1 at GLP-1R alone

Compound: NCCCC[C@H](NC(=O)[C@@H](Cc1cc(Br)c(O)c(Br)c1)NC(=O)N1CCC(N2Cc3ccccc3NC2=O)CC1)C(=O)N1CCN(c2ccncc2)CC1 [BIBN 4096 BS]
- activity at CLR-RAMP1 (CLR-RAMP1): CLR-RAMP1 antagonist

Compound: CC(C)(C)c1cc(C(=O)/C(C#N)=N/Nc2cccc(Cl)c2)no1 [ESI-09]
- effect of inhibitor on GLP-1-mediated insulin secretion (INS-1 832/3 cells): significantly decreased GLP-1 mediated potentiation of GSIS in both vector and RAMP3 transfected cells
- effect on insulin secretion with […] glucose alone (INS-1 832/3 cells; 10μM ESI-09, no GLP-1, n=6): a reduction was also observed on the response to 16.7mM glucose alone; also recorded: a non-significant reduction was also observed in cells stimulated with high glucose alone

Compound: Nc1ncnc2c1nc(Br)n2C1OC2COP(O)(=S)OC2C1O (stereo not shown) [Rp-8-Br-cAMPs]
- effect of inhibitor on GLP-1-mediated insulin secretion (INS-1 832/3 cells): no effect on insulin secretion, irrespective of the expression of RAMP3

Compound: C=C1C(=O)NC(C)C(=O)N(C)C(C)C(=O)NC(C(OC(=O)C(NC(C)=O)C(O)C(C)C)C(C)C)C(=O)N(C)C(C(C)OC)C(=O)OC(C)C(NC(C)=O)C(=O)OC(Cc2ccccc2)C(=O)N1C (stereo not shown) [YM-254890] (Ac-T[PhLac][NMeDha]A[NMeA][X1][NMeT](Me); ester 1-C; configuration not given here)
- effect of inhibitor on GLP-1-mediated insulin secretion (INS-1 832/3 cells): the effect of YM-254890 was greater than PTX

Compound: Ex-4-Red: Tag-Lite GLP-1 receptor red ligand, based on exendin-4 (Cisbio)
- binding of Ex-4-Red [1]: not observed for SmBiT-RAMP1 or -RAMP2

Compound: GLP-1 (7–36amide)
- insulin secretion (INS-1 832/3 cells): 2.36±0.30 fold over 2.8mM glucose and 3.94±0.33 fold over 2.8mM glucose
- effect of Ramp knockout on bodyweight lowering [2]: increase the effect of GLP-1 on bodyweight lowering in mouse models
- blood glucose, ITT ([3]; Ramp3−/− mice): lost in Ramp3^−/− mice (Figure 7H)
- blood glucose, ITT ([3]; WT mice): potentiated the effects of insulin on blood glucose
- plasma insulin, IPGTT ([4]; Ramp3−/− mice): This response was lost in Ramp3^−/− mice; also recorded: no longer able to elevate insulin secretion above vehicle-treated animals
- plasma insulin, IPGTT ([4]; WT mice): increased insulin secretion 15 minutes after administration of glucose
- effect of RAMP2 on Gαs coupling at GCGR (GCGR with RAMP2): decreasing the response
- effect of RAMP3 knockdown on insulin secretion (Min6 B1 cells): attenuated, although the effect was small

Compound: GLP-1 (9–36amide) [GLP-1 9–36]
- (Ca2+)i mobilisation (Nluc-GLP-1R [5]; in the absence of RAMP3): unable to elicit any (Ca^2+)i mobilisation in the absence of RAMP3
- cAMP production (Nluc-GLP-1R [6]; 8-minute stimulation, concentration range tested): did not elicit sufficient cAMP production over the concentration range tested

Compound: exendin-4: incretin mimetic, approved for T2DM in 2005
- effect of RAMP3 on Gαq(Q) dissociation (GLP-1R / Gαq(R183Q)): no effect
- effect of RAMP3 on Gαs dissociation (GLP-1R / Gαs): no effect
- effect of RAMP3 overexpression on cAMP potency and efficacy (Nluc-GLP-1R [6]; 8-minute stimulation): reductions in both potency and efficacy observed when RAMP3 was overexpressed
- effect of RAMP3 on internalisation (GLP-1R-Nluc [7]): no subsequent effect on internalisation

Compound: glucagon: agonist of the glucagon receptor (GCGR)
- effect of RAMP2 on Gαs coupling at GCGR (GCGR with RAMP2): increasing Gαs coupling at GCGR

Compound: glucose-dependent insulinotropic polypeptide [GIP]
- effect of RAMP1 and RAMP3 on insulin secretion (INS-1 832/3 cells): both RAMP1 and 3 increased insulin secretion
- effect of RAMP3 knockdown on insulin secretion (Min6 B1 cells): unaffected by RAMP3 knockdown

Compound: liraglutide: a synthetic, lipidated GLP-1 mimetic, approved in the treatment of T2DM
- effect of RAMP3 on Gαq(Q) dissociation (GLP-1R / Gαq(R183Q)): no effect
- effect of RAMP3 on Gαs dissociation (GLP-1R / Gαs): no effect
- effect of RAMP3 on (Ca2+)i mobilisation (Nluc-GLP-1R [5]): no significant effects
- effect of RAMP3 overexpression on cAMP potency and efficacy (Nluc-GLP-1R [6]; 8-minute stimulation): reductions in both potency and efficacy observed when RAMP3 was overexpressed
- effect of RAMP3 on LogRA, cAMP accumulation / second messenger (Nluc-GLP-1R [6]; [9]): lesser effects on second messenger signalling
- inherent signalling bias (GLP-1R-Nluc [8]): bias towards β-arrestin recruitment
- effect of RAMP3 on internalisation (GLP-1R-Nluc [7]): significant decrease in the potency of internalisation; also recorded: the response to liraglutide was reduced
- effect of RAMP3 on LogRA, desensitisation / internalisation (GLP-1R-Nluc [7]; [9]): greater reduction in internalisation
- effect of RAMP2 on Gαs coupling at GCGR (GCGR with RAMP2): decreasing the response

Compound: oxyntomodulin: an endogenous dual agonist of both GCGR and GLP-1R
- effect of RAMP3 on Gαq(Q) dissociation (GLP-1R / Gαq(R183Q)): no effect
- effect of RAMP3 overexpression on cAMP potency and efficacy (Nluc-GLP-1R [6]; 8-minute stimulation): reductions in both potency and efficacy observed when RAMP3 was overexpressed
- effect of RAMP3 on internalisation (GLP-1R-Nluc [7]): no subsequent effect on internalisation
- effect of RAMP2 on Gαs coupling at GCGR (GCGR with RAMP2): increasing Gαs coupling at GCGR

Compound: pertussis toxin [PTX]
- effect of inhibitor on GLP-1-mediated insulin secretion (INS-1 832/3 cells): decreased insulin secretion significantly only when RAMP3 was overexpressed
